Assays:
[1] = test system: adhesion formation; assay: Murine adhesion model (total adhesion score); assay type: in vivo, mice; conditions: for adhesion formation (adhesion score): daily intraperitoneal injection, day 5 after injury (FIG. 9)
Experimental: Small molecule inhibitors were solubilized in sterile 2% hydroxyethyl-cellulose (Sigma Aldrich, #09368). Compounds were being added immediately prior to surgery, and were derived from a 100-150 mM stock solution to minimize the final DMSO content. The final solution (200 μL per 30 g body weight) was sandwiched between the visceral and parietal layer of the injured cecum and peritoneum respectively.
Mice were anesthetized by an intraperitoneal injection of a Medetomidin (500 μg/kg), Midazolam (5 mg/kg) and Fentanyl (50 μg/kg) cocktail, hereafter referred to as MMF. Monitoring anesthetic depth was assessed by toe reflex. Eyes were covered with Bepanthen to avoid dehydration, and the abdomen was shaved and disinfected with betadine and sterile phosphate buffered saline (PBS). Animals were kept on their backs on a heating plate at 37° C. A midline laparotomy (1-1.5 cm) was performed through the skin and peritoneum. Four hooks, positioned around the incision and fixed to a retractor and magnetic base plate, allowed for clear access to the abdominal cavity. A small surgical brush was used to gently abrade the peritoneal surface and apposing cecal surface. Two surgical knots using 4-0 silk sutures (Ethicon) were then placed through the serosal surface of the peritoneum. A cotton swab was used to gently apply a dab of talc powder (Sigma Aldrich, #243604) onto the injured surfaces. Before closure of the incision, buprenorphine (0.1 mg/kg) was pipetted in the abdomen to allow for initial post-surgical analgesia. For long-term analgesia, metamizol (Novalgin, 200 mg/kg) was provided through daily injection. The peritoneum and skin were closed with two separate 4-0 silk sutures (Ethicon). Upon closure of the incision, mice were woken up by antagonizing the MMF solution through a subcutaneous cocktail injection of Atipamezol (1 mg/kg) and Flumazenil (0.25 mg/kg). Mice were allowed to recover on a heating pad, after which they were housed together (females) or individually (males), and followed for 1-5 days. Adhesions were scored using gross morphological features that indicated adhesion development. Five individual adhesion features were scored (see table below) that together provided a cumulative value that determined the total adhesion score. With this system, complete absence of adhesions were scored as 0, whereas the maximum adhesion score was 15.
Mice were anesthetized by an intraperitoneal injection of a Medetomidin (500 μg/kg), Midazolam (5 mg/kg) and Fentanyl (50 μg/kg) cocktail, hereafter referred to as MMF. Monitoring anesthetic depth was assessed by toe reflex. Eyes were covered with Bepanthen to avoid dehydration, and the abdomen was shaved and disinfected with betadine and sterile phosphate buffered saline (PBS). Animals were kept on their backs on a heating plate at 37° C. A midline laparotomy (1-1.5 cm) was performed through the skin and peritoneum. Four hooks, positioned around the incision and fixed to a retractor and magnetic base plate, allowed for clear access to the abdominal cavity. A small surgical brush was used to gently abrade the peritoneal surface and apposing cecal surface. Two surgical knots using 4-0 silk sutures (Ethicon) were then placed through the serosal surface of the peritoneum. A cotton swab was used to gently apply a dab of talc powder (Sigma Aldrich, #243604) onto the injured surfaces. Before closure of the incision, buprenorphine (0.1 mg/kg) was pipetted in the abdomen to allow for initial post-surgical analgesia. […]

[2] = test system: Met-5A cells; assay: Adhesion propagation assay (nanoluciferase expressing Met-5A cells); assay type: cell-based, human; conditions: for transmissibility: 10 μM, 24 hours, adhesion propagation assay (FIG. 6D) and Cre-exchange transmission assay (FIG. 6E)
Experimental: […] After 24 hours, unbound carriers were washed away and nanoluciferase luminescence was measured. This represents the initial stress-dependent transmitted adhesion.
[…] Carriers were then separated from the monolayer and placed on an unstressed Met-5A wild-type monolayer. After 24 hours, unbound beads were washed away and nanoluciferase luminescence was measured. This represents the first stress-independent transmitted adhesion.
Carriers were then separated from the monolayer and placed on unstressed cell-covered beads stably expressing nanoluciferase (AF1) for 3 hours. Carriers were then isolated once more and placed on an unstressed Met-5A monolayer stably expressing the dTomato-P2A-NanoLuciferase reporter construct (AF34). Unbound beads were then washed away and nanoluciferase luminescence was measured after 24 hours. This represents the second stress-independent transmitted adhesion.
This procedure was continued similarly for the consecutive third and fourth transmissions.
First, repeated consecutive mixing experiments were performed with nanoluciferase-expressing Met-5A cells to study the extent of adhesion propagation. When unstressed cells were exposed to heliocytes, and then separated, they were fully able to generate adhesions even though they had not themselves experienced stress (FIG. 3F). Pharmacological inhibition of HIF-1α signaling has been one of the few proposed intervention routes to reduce adhesion burden^16, thus it was tested to see whether the HIF-1α inhibitor echinomycin could inhibit transmissibility. […] Transmission occurred rapidly, as unstressed cells only had to be exposed to heliocytes for a total of 90 min for successful transmission to occur and allow them to form adhesions themselves (FIG. 3H). Second, two additional cell lines were generated, one expressing Cre recombinase and one expressing a stop codon flanked by two LoxP sites followed by a dTomato-P2A-Nanoluciferase. In this transmission assay, Cre recombinase only drives dTomato-P2A-Nanoluc expression if extensive cytoplasmic mixing occurs that allows Cre recombinase protein to be transferred and shuttled into the nucleus of the dTomato-P2A-Nanoluc cells. Indeed, extensive dTomato fluorescence was observed 3 hours after unstressed carriers were seeded onto a stressed monolayer (FIG. 3I). Under consecutive mixing conditions, like the propagation set-up, naive cells receiving cellular contents from heliocytes could in turn transmit to other cells independently from HIF-1α signaling, for a total of three rounds after the original stress stimulus (FIGS. 3J and K). Because cytoskeletal networks and membrane shuffling are extremely sensitive to shifts in available calcium^17, it was asked whether calcium signaling underlies heliocyte formation and filipodial extensions, using two independent approaches.

[3] = test system: heliocytes (stressed Met-5A mesothelial cells); assay: Protrusion development in desiccation-stressed Met-5A cells expressing membranous GFP (epi-fluorescence); assay type: cell-based, human; conditions: 10 μM, 24 hours, desiccation stress (FIG. 6B)
Experimental: (§1) FIG. 6: Single-cell transcriptomics of heliocytes. A) Overview of the Dropseq workflow. B) Epi-fluorescent representative images of Met-5A cells stably expressing membranous GFP, stressed with desiccation and treated with small-molecule compounds for 24 hours (10 μM). Scale bar, 10 μm. C) Desiccation shock induces small-molecule sensitive carrier-carrier aggregation as assessed with a high-throughput nanoluciferase assay. ID) Adhesion propagation assay (see methods) with nanoluciferase expressing Met-5A cells after treatment with small molecule inhibitors for 24 hours (10 μM). E) Cre-exchange transmission assay (see methods) with Cre-recombinase and Cre-dependent nanoluciferase expressing Met-5A cells after treatment with small molecule inhibitors for 24 hours (10 μM).
Met-5A cells were seeded on gelatin (Sigma Aldrich, #G1393) coated dishes. Once a confluent monolayer was established, stressed cell-covered beads were seeded onto the monolayer. For the inhibitory experiments, if not indicated otherwise, monolayer cells were pretreated with the indicated compound for 30 minutes in culture medium. Afterwards the adhesion assay was performed as described above.
Mesothelial protrusion analysis was performed using the Advanced weka segmentation Fiji plugin^37. It utilizes a collection of machine learning algorithms for segmentation. Specifically, pixel-based segmentation is based on image features annotated to different classes. Pixel samples were free drawn and assigned to respective classes, e.g. ‘filopodia’, ‘cell body’, or ‘background’. Subsequent rounds of training were performed to allot respective pixels and structures to its corresponding classes for improved segmentation. Training features, such as ‘Gaussian blur’, ‘Sobel filter’, ‘Hessian’, ‘Difference of Gaussians’ and ‘Membrane projections’ were applied along with default classifier ‘Fast Random Forest’. Other settings were kept as default (membrane thickness 1, membrane patch size 19, minimum sigma 1.0, and maximum sigma 16.0). The trained classifier and data were saved for analysis of other ‘stressed’ and ‘unstressed’ mesothelial datasets. A macro was written to automate the above steps for other datasets with pause for 5 seconds (wait(5000) function) after each step for smooth processing. Images from the segmented classes were extracted and subjected to post processing.
In order to identify underlying mechanisms of heliocyte transformation, differential gene expression analysis was performed using a likelihood-ratio test for single cell gene expression data^21. This identified 1644 genes that were regulated in stressed cells at one or more time points (FDR<10%). […]

[4] = test system: Met-5A cells on microcarrier beads; assay: High-throughput carrier-carrier adhesion assay (nanoluciferase); assay type: cell-based, human; conditions: desiccation shock, high-throughput nanoluciferase assay (FIG. 6C)
Experimental: as §1
Cells were incubated with ice cold luciferase lysis buffer (25 mM Tris-HCL pH 7.8, 1% Triton X-100, 15 mM MgSO4, 4 mM EGTA, 1 mM DTT) for 20 minutes. Both assays were performed in a 96-wells plate format. Luciferase firefly substrate was dissolved in PBS, and consisted of 20 mM Tricine, 2.67 mM MgSO4, 0.1 mM EDTA, 33.3 mM DTT, 0.52 mM ATP, 0.27 mM Acetyl-CoA, 5 mM NaOH, […], and 0.47 mM D-Luciferin (Carl Roth, #CN24.3). For nanoluciferase, the substrate solution included 47.2 μM Coelenterazine (Carl Roth, #4094.4). Luminescence was detected after 5 minutes of substrate and lysate co-incubation using the TriStar^2 LB 942 Modular Multimode microplate reader (Berthold Technologies).
Met-5A cells were seeded together with Cytodex® 3 microcarrier beads (Sigma Aldrich, #03275) in a ratio of 500:1, and allowed to adhere and grow for 5 days. Cell-covered beads were then eluted from the culture dish using a 25 mL stripette. The resulting solution was strained through a 100 μm cell strainer (Corning, #352360). […] was induced by placing the bead-containing cell strainer under a running cell culture flow hood for 15 minutes. Afterwards, beads were eluted with assay medium and placed in a cultivation dish coated with HEMA silicate solution (Sigma Aldrich, #P3932), to prevent cell attachment. After indicated time points, carrier complexes were collected by filtering them through a 200 μm cell strainer, which allows individual carriers to pass, while trapping carrier complexes. Adhesions were measured in a high throughput manner through the use of Met-5A cells stably expressing luciferase (AF23) or nanoluciferase (AF1) using Integra Viaflo pipettes.

[5] = test system: caspase3 activity in heliocytes; assay: Caspase3 activity reporter assay (nanoluciferase-caspase3 cleavage site-degradation peptide); assay type: cell-based, human; conditions: stressed mesothelial cells (heliocytes), compared to control (FIG. 12)
Experimental: Then, determination of caspase3 activity in heliocytes was performed. Cells stably expressing a nanoluciferase-caspase3-cleaving-site-degredation-peptide (FIG. 12) were grown on beads seeded onto a Met-5A monolayer. After 24 h nanoluciferase activity was determined. The degradation peptide leads to constitutive degradation of nanoluciferase, active caspase3 cleaves the protein linker, thus removing the degradation signal, leading to increased nanoluciferase amount.
(§2) In order to test listed inhibitor treatments for potential unwanted side effects, in vitro as well as in vivo apoptosis readouts were performed. […] Next, fragmented DNA amounts in the in vitro adhesions were determined, staurosporine representing as the positive control. […] Apoptosis signaling cascades dependent on caspase3 protease activity. To screen caspase3 activity in a high throughput manner, a new functional screening assay was developed. The assay is based on a nanoluciferase fused to a degradation signaling peptide interlinked with caspase3 cleavage sites. Once activated, caspase3 cleaves protein linker, removes the degradation signal and prevents proteasomal digestion of the nanoluciferase.

[6] = test system: stressed mesothelial cells (heliocytes); assay: Apoptosis assay: fragmented DNA (Cell Death Detection ELISA) in in vitro bead assay; assay type: cell-based, human; conditions: 10 μM, stressed mesothelial cells (FIG. 11)
Experimental: FIG. 11: Apoptosis Assay. Measurement of fragmented DNA as indicator for apoptosis after 5 days having applied CK666, Golgicide A, Rhosin, Bepridil, Heat shock protein inhibitor 1 (HIS-1) using the in vitro bead assay. Stautosporin serves as a positive control.
Met-5A cells were seeded on gelatin (Sigma Aldrich, #G1393) coated dishes. Once a confluent monolayer was established, stressed cell-covered beads were seeded onto the monolayer. For the inhibitory experiments, if not indicated otherwise, monolayer cells were pretreated with 10 μM of indicated compounds for 30 minutes in culture medium. After 24 h fragmented DNA was determined via Cell Death Detection […] (Sigma Aldrich, #11774425001).
as §2

Compound	adhesion score ([1]; single application of 10 nM in 2% cellulose, topical, 5 days after injury (FIG. 16))	initial desiccation-induced transmission ([2]; HIF-1α inhibition (FIG. 3G))	protrusion development in heliocytes [3]	adhesion formation (adhesion score) [1]	adhesion formation (carrier-carrier aggregation) [4]	transmissibility [2]	caspase3 activity (nanoluciferase activity of reporter) [5]	fragmented DNA (indicator for apoptosis) [6]
CNc1ccc([N+](=O)[O-])c(Nc2ccc3[nH]ncc3c2)n1 [KRIBB11]	shows no effect	–	–	–	–	–	–	–
CS[C@H]1SC[C@H]2C(=O)N(C)[C@@H](C(C)C)C(=O)OC[C@@H](NC(=O)c3cnc4ccccc4n3)C(=O)N[C@@H](C)C(=O)N(C)[C@@H]1C(=O)N(C)[C@@H](C(C)C)C(=O)OC[C@@H](NC(=O)c1cnc3ccccc3n1)C(=O)N[C@@H](C)C(=O)N2C [echinomycin]	–	could be prevented	–	–	–	–	–	–
Cc1[nH]c2ccccc2c1CCNC(=O)c1ccccc1F [CK-666]	–	–	completely blocked	robustly inhibited adhesion formation	completely blocked	completely blocked	–	–
Fc1cc(F)c2c(c1)C1C=CCC1C(c1cccnc1)N2 (stereo not drawn) [Golgicide A]	–	–	completely blocked	robustly inhibited adhesion formation	completely blocked	completely blocked	–	–
CN[C@@H]1C[C@H]2O[C@@](C)([C@@H]1OC)n1c3ccccc3c3c4c(c5c6ccccc6n2c5c31)C(=O)NC4 [Staurosporine]	–	–	–	–	–	–	enhanced nanoluciferase activity	–
Rhosin	–	–	completely blocked	robustly inhibited adhesion formation	completely blocked	completely blocked	higher caspase3 activity	significantly more fragmented DNA
CC(C)COCC(CN(Cc1ccccc1)c1ccccc1)N1CCCC1 (stereo not drawn) [Bepridil]	–	–	completely blocked	robustly inhibited adhesion formation	completely blocked	completely blocked	–	–

Source: patent US20220125754A1, “TREATING THE CAUSATIVE AGENT IN ADHESIOGENESIS” (Helmholtz Zentrum München - Deutsches Forschungszentrum Für …, priority 2019, published 2022)
